Assay results taken from ChEMBL document CHEMBL3632524, “3-(2,6-Dichloro-benzyloxy)-11-oxo-olean-12-ene-29-oic acid, a semisynthetic derivative of glycyrrhetic acid: synthesis, antiproliferative, apoptotic and anti-angiogenesis activity” (Medchemcomm, 2015).

How the values were obtained:
Type in all cases: functional, cell-based
PC-3 = test: Antiproliferative activity against human PC3 cells assessed as cell viability after 48 hrs by MTT assay; conditions: PC-3, 48 h
[1] = Antiproliferative activity against human MIAPaCa2 cells assessed as cell viability after 48 hrs by MTT assay; conditions: MIA PaCa-2, 48 h
HepG2 = test: Antiproliferative activity against human HepG2 cells assessed as cell viability after 48 hrs by MTT assay; conditions: HepG2, 48 h

IC50 (PC-3) [µM] | IC50 (HepG2) [µM] | SMILES | IC50 [1] [µM]
18 | > 100 | CC1(C)[C@@H](OCc2ccc(Cl)cc2Cl)CC[C@]2(C)[C@H]3C(=O)C=C4[C@@H]5C[C@@](C)(C(=O)O)CC[C@]5(C)CC[C@@]4(C)[C@]3(C)CC[C@@H]12 | > 100
> 20 | > 20 | CO[C@H]1CC[C@]2(C)[C@H]3C(=O)C=C4[C@@H]5C[C@@](C)(C(=O)O)CC[C@]5(C)CC[C@@]4(C)[C@]3(C)CC[C@H]2C1(C)C | > 20
> 20 | > 20 | CC1(C)[C@@H](OCc2ccc(Br)cc2)CC[C@]2(C)[C@H]3C(=O)C=C4[C@@H]5C[C@@](C)(C(=O)O)CC[C@]5(C)CC[C@@]4(C)[C@]3(C)CC[C@@H]12 | > 20
> 20 | > 20 | CC1(C)[C@@H](OCc2ccc(F)c(Br)c2)CC[C@]2(C)[C@H]3C(=O)C=C4[C@@H]5C[C@@](C)(C(=O)O)CC[C@]5(C)CC[C@@]4(C)[C@]3(C)CC[C@@H]12 | > 20

More lines, now with the values behind:

SMILES | IC50 (PC-3) [µM] | IC50 (HepG2) [µM] | IC50 [1] [µM]
CC(C)=CCC/C(C)=C\CO[C@H]1CC[C@]2(C)[C@H]3C(=O)C=C4[C@@H]5C[C@@](C)(C(=O)O)CC[C@]5(C)CC[C@@]4(C)[C@]3(C)CC[C@H]2C1(C)C | > 20 | > 20 | > 20
CC[C@@]1(O)C(=O)OCc2c1cc1n(c2=O)Cc2cc3ccccc3nc2-1 [CAMPTOTHECIN] |  | 0.2 | 0.19
CC1(C)[C@@H](OCc2cccc([N+](=O)[O-])c2)CC[C@]2(C)[C@H]3C(=O)C=C4[C@@H]5C[C@@](C)(C(=O)O)CC[C@]5(C)CC[C@@]4(C)[C@]3(C)CC[C@@H]12 | > 20 | > 20 | > 20
CC(=O)O[C@H]1C(=O)[C@@]2(C)[C@H]([C@H](OC(=O)c3ccccc3)[C@]3(O)C[C@H](OC(=O)[C@H](O)[C@@H](NC(=O)c4ccccc4)c4ccccc4)C(C)=C1C3(C)C)[C@]1(OC(C)=O)CO[C@@H]1C[C@@H]2O [PACLITAXEL] | 0.012 | > 100 | 0.1
CC1(C)[C@@H](OCc2ccc3c(c2)OCO3)CC[C@]2(C)[C@H]3C(=O)C=C4[C@@H]5C[C@@](C)(C(=O)O)CC[C@]5(C)CC[C@@]4(C)[C@]3(C)CC[C@@H]12 | > 20 | > 20 | > 20
CC(C)=CCO[C@H]1CC[C@]2(C)[C@H]3C(=O)C=C4[C@@H]5C[C@@](C)(C(=O)O)CC[C@]5(C)CC[C@@]4(C)[C@]3(C)CC[C@H]2C1(C)C | > 20 | > 20 | > 20
CC1(C)[C@@H](OCc2ccccc2I)CC[C@]2(C)[C@H]3C(=O)C=C4[C@@H]5C[C@@](C)(C(=O)O)CC[C@]5(C)CC[C@@]4(C)[C@]3(C)CC[C@@H]12 | > 20 | > 20 | > 20
